Data from PMC9767416, “Discovery of small molecule mechanistic target of rapamycin inhibitors as anti-aging and anti-cancer therapeutics” (Frontiers in Aging Neuroscience, 2022).
Read-outs that look alike come from different tables or passages of the source.

Assays:
C57BL/6 (B6) male mice [1] = assay: In vivo tolerability study (behaviour, signs of toxicity, body weight)
Protocol: C57BL/6 (B6) male mice, 8–12 weeks old, were obtained from the Institute of Molecular Genetics, Prague, Czech Republic. Experimental protocols were approved by the Institutional Animal Care Committee of the Institute of Molecular Genetics, Prague.
Compounds were dissolved in 20 μL DMSO and completed into 200 μL with corn oil.
(§1) During the experiments, mice behavior and possible apparent signs of toxicity were monitored daily. The body weights were determined on days 0, 4, and 8. On day 8, blood (25 μL) was withdrawn using a capillary pipette containing anticoagulant (heparin) from the retroorbital sinus into EDTA-containing tubes. Basic hematological parameters were measured using the Mindray BC-5300 Vet. Mice were then killed, autopsied, and abdominal organs (spleen, liver, and kidney) were removed for visual examination and imaging by a digital camera. Single-cell suspensions from the spleens were prepared by homogenization through a cell strainer (70 μm; BD Biosciences, San Jose, CA, USA). Erythrocytes were osmotically lysed using ammonium chloride-potassium lysis buffer, and the cell suspensions were washed three times in the RPMI-1640 medium and used for further analysis by flow cytometry for selected cell populations.

[2] = test system: pro-inflammatory cytokines of SASP; assay: Secretion of pro-inflammatory cytokines (SASP) by senescent cells; format: cell-based, human; conditions: 50 μM, 24 h; for all detectable cytokines (IL-1α, IL-1β, IL-6, IL-8, IL-27, MCP-1, TNFα): TMZ-induced U87 senescent cells
Protocol: To determine the secretion of selected inflammatory cytokines into culture media, cell cultures were exposed to tested compounds (50 μM) for 24 h. Then the culture medium was removed, cells were washed three times with 1 mL PBS, and a fresh medium without FBS was added for 24 h. Detection of cytokines in conditioned culture media was done by Human Inflammation 11-Plex Panel: IFNγ, IL-1α, IL-1β, IL-6, IL-8, IL-10, IL-12p70, IL-27, IP-10, MCP-1, and TNFα (AimPlex Biosciences, Inc.) using a BD FACSVerseTM flow cytometer (BD Biosciences, Franklin Lakes, NJ, USA) according to manufacturer’s protocol. Data were analyzed using FlowJo 10 software (FlowJo LLC, Ashland, OR, USA).
Importantly, compound 3 decreased IL-1α, IL-8, and MCP-1 consistently in all tested senescence models. The effect of compound 3 on IL-6 was variable.

C57BL/6 (B6) male mice [3] = assay: Spleen cell populations by flow cytometry in the tolerability study; format: in vivo; conditions: for CD4+ spleen cells / CD8+ spleen cells / Cd11b+/Gr-1+ spleen cells: percentage from the CD45+ cells
Protocol: as §1
The cellularity of selected spleen cell populations was analyzed by flow cytometry. Cell suspensions were washed and preincubated with anti-CD16/CD32 (2.4G2) antibody to minimize non-specific binding at 4°C for 15 min following the washing step and incubation with labeled primary antibody at 4°C for 30 min. Relevant isotype controls of irrelevant specificity were used. FACS buffer (PBS, 1% FBS, 0.1% NaN3) was used for all washing steps and analysis. The following antibodies were used for FACS analyses: BV421 anti-mouse CD45 (30-F11), PE anti-mouse CD8α (53-6.7), BV711 anti-mouse CD4 (RM4-5), APC anti-mouse Ly-6g/Ly-6C (Gr-1) (RB6-8C5), BV711 anti-mouse CD11b (M1/70). FACS analysis was performed using a flow cytometer Symphony (BD Biosciences) and analyzed using FlowJo 10 software (FlowJo LLC, Ashland, OR, USA).

[4] = Solubility by nephelometry (water, buffer pH 7.4); format: physicochemical; conditions: for logSpH 7.4: buffer pH 7.4; for logSH2O: water
Protocol: Compounds’ solubility was measured by the NEPHELOstar microplate instrument (BMG Labtech, Offenburg, Germany). Stock solutions were prepared by dissolving the tested compounds in ultrapure water or sodium phosphate buffer (pH 7.4) to obtain a concentration of 160 and 1,000 μg/mL. Each stock solution was sonicated at full power by Hielscher UP100H needle ultrasonic processor (Teltow, Germany) before loading into NEPHELOstar instrument injector A. Ultrapure water or sodium phosphate buffer was loaded into injector B. Compound was diluted in 48 wells in 0–160 or 0–1,000 μg/mL range and subsequently shook for 30 s. Each well was scanned with 80% laser power in matrix 3 × 3, beam width 2 mm, and obtained data were evaluated in GraphPad Prism 7.03 (GraphPad Software, San Diego, CA, USA) using segmental linear regression.

[5] = test system: mTORC1 substrate p70 S6 kinase (Thr389 phosphorylation); assay: Immunoblot of phospho-p70 S6K (Thr389), mTORC1 activity in cells; format: cell-based, human; conditions: for effect on Thr389 S6K phosphorylation / effect on p70 S6K phosphorylation: 100 μM
[6] = Shake-flask partition coefficient logP and distribution coefficient logD (pH 7.4); format: physicochemical; conditions: for logD: n-octanol/sodium phosphate buffer pH 7.4; for logP: n-octanol/water
Protocol: Before the initiation of the intended experiments, all solvents were mutually saturated at 21°C. […] For saturation, large stock bottles containing n-octanol and 12% of water/buffer or water/buffer and 12% of n-octanol were shaken for 30 mins on a mechanical shaker and subsequently left to stand on the bench overnight until the phases separated. Approximately 0.50 mg of tested substance was added to the test vessels alongside with 1:1 volume ratio of saturated solvents (250 μL). The test vessels were shaken on the mechanical shaker (Multi Reax, Heidolph Instruments, Schwabach, Germany) for 30 min at the highest speed and then centrifuged for phase separation (16.873 × g for 5 min; Eppendorf 5418 Microcentrifuge, Prague, Czech Republic). Both organic and aqueous phases were sampled for LC-MS analysis. UHPLC-DAD-MS (UHPLC Infinity II 1290, detection by DAD and QqQ 6470; Agilent Technologies, CA, USA; separation on Arion C18 polar column 100 × 2.1 mm, 2.1 μm; Chromservis, Czech Republic) was used for determination of the exact concentration of tested substances. The total quantity of substance (in both phases) was used for logP/logD values calculation.

[7] = p.o. 5, 25 and 50 mg/kg body weight, days 0, 3, 5
[8] = all tested senescence models (DIS-BJ, IR-RPE-1, TMZ-U87)
[9] = 5 mg/kg p.o. days 0, 3, 5, spleen day 8
[10] = 25 mg/kg p.o. days 0, 3, 5, spleen day 8
[11] = 50 mg/kg p.o. days 0, 3, 5, spleen day 8
[12] = sodium phosphate buffer pH 7.4, nephelometry

In the case of `Nc1ccc(C(=O)Nc2cccc(-c3c[nH]c4ncccc34)c2)cc1O` [Compound 3, N-(3-(1H-pyrrolo[2,3-b]pyridin-3-yl)phenyl)-4-amino-3-hydroxybenzamide], the symptoms of intoxication (C57BL/6 (B6) male mice [1]; 50 mg/kg body weight, perorally) is reported as “did not exert any symptoms of intoxication”, the “changes in mice behavior and body weights” value (C57BL/6 (B6) male mice [1]; [7]) is reported as “no changes” and the “signs of whole body or organ toxicities” value (C57BL/6 (B6) male mice [1]; [7]) is reported as “no apparent signs”. The “IL-6 level in conditioned medium” value ([2]; DIS-BJ senescent cells) was “apparent decrease”, the “IL-6 level in conditioned medium” value ([2]; TMZ-U87 senescent cells) was “apparent decrease” and the “all detectable cytokines (IL-1α, IL-1β, IL-6, IL-8, IL-27, MCP-1, TNFα)” value [2] was “suppressed”. The “IL-1α level in conditioned medium” value [2, 8] was “decreased”, the “IL-8 level in conditioned medium” value [2, 8] was “decreased” and the “MCP-1 level in conditioned medium” value [2, 8] was “decreased”. The “CD45+ spleen cells” value (C57BL/6 (B6) male mice [3]; [9]) was 94.3%, the “CD4+ spleen cells” value (C57BL/6 (B6) male mice [3]; 5 mg/kg p.o.) was 19.0% and the “CD8+ spleen cells” value (C57BL/6 (B6) male mice [3]; 5 mg/kg p.o.) was 11.4%. The “Cd11b+/Gr-1+ spleen cells” value (C57BL/6 (B6) male mice [3]; 5 mg/kg p.o.) was 0.7%, the “CD45+ spleen cells” value (C57BL/6 (B6) male mice [3]; [10]) was 95.9% and the “CD4+ spleen cells” value (C57BL/6 (B6) male mice [3]; 25 mg/kg p.o.) was 15.9%. For the same molecule, the “CD8+ spleen cells” value (C57BL/6 (B6) male mice [3]; 25 mg/kg p.o.) was 9.6%, the “Cd11b+/Gr-1+ spleen cells” value (C57BL/6 (B6) male mice [3]; 25 mg/kg p.o.) was 1.0% and the “CD45+ spleen cells” value (C57BL/6 (B6) male mice [3]; [11]) was 97.2%. For the same molecule, the “CD4+ spleen cells” value (C57BL/6 (B6) male mice [3]; 50 mg/kg p.o.) was 16.0%, the “CD8+ spleen cells” value (C57BL/6 (B6) male mice [3]; 50 mg/kg p.o.) was 9.8% and the “Cd11b+/Gr-1+ spleen cells” value (C57BL/6 (B6) male mice [3]; 50 mg/kg p.o.) was 0.8%. For the same molecule, the solubility kinetic at 30 s ([4]; aqueous buffer, sodium phosphate buffer pH 7.4, nephelometry, read-out: Sol. (buffer 7.4)) was under 6 µg/mL, the “logSpH 7.4” value [4] was under −4.76 and the “Sol. (buffer 7.4)” value [4, 12] was “lower than 6 μg/mL”. For the same molecule, the “Sol. (H2O)” value ([4]; ultrapure water, nephelometry) was “lower than 6 μg/mL”, the solubility kinetic at 30 s ([4]; ultrapure water, nephelometry, read-out: Sol. (H2O)) was under 6 µg/mL and the logSH2O [4] was under −4.76. For the same molecule, the “effect on Thr389 S6K phosphorylation” value ([5]; BJ cells, 1 and 5 h) was “inhibitory effect”, the “effect on Thr389 S6K phosphorylation” value ([5]; DU-145, 1 and 5 h) was “no effect” and the “effect on Thr389 S6K phosphorylation” value ([5]; H1299, 1 and 5 h) was “Marked but transient inhibition”. For the same molecule, the “effect on Thr389 S6K phosphorylation” value ([5]; MDA-MB-231, 1 and 5 h) was “Marked but transient inhibition”, the “effect on Thr389 S6K phosphorylation” value ([5]; RPE-1, 1 and 5 h) was “no effect” and the “effect on Thr389 S6K phosphorylation” value ([5]; T98, 1 and 5 h) was “Marked but transient inhibition”. For the same molecule, the “effect on Thr389 S6K phosphorylation” value ([5]; U87, after 1 h, reasonable level also after 5 h) was “most potent inhibitory effect”, the “effect on p70 S6K phosphorylation” value ([5]; docetaxel-induced senescent BJ, 1 and 5 h) was “robust effect” and the “effect on p70 S6K phosphorylation” value ([5]; ionizing radiation-induced senescent RPE-1, 1 and 5 h) was “less pronounced effect”. For the same molecule, the “concentration from which inhibition of S6K phosphorylation is apparent” value ([5]; proliferating BJ cells, 0–100 μM, after 5 h-long exposure) was 6.25 µM, the “effect on p70 S6K phosphorylation” value ([5]; temozolomide-induced senescent U87, 1 and 5 h) was “less pronounced effect” and the logD ([6]; n-octanol/sodium phosphate buffer, pH 7.4, shake-flask, read-out: logD) was 2.15 ± 0.02. It also gave a logP ([6]; shake-flask, read-out: logP) of 2.08 ± 0.07.

For `CC(C)n1nc(-c2cc3cc(O)ccc3[nH]2)c2c(N)ncnc21` [Torkinib, torkinib], the “signs of whole body or organ toxicities” value (C57BL/6 (B6) male mice [1]; [7]) was “no apparent signs”, the “all detectable cytokines (IL-1α, IL-1β, IL-6, IL-8, IL-27, MCP-1, TNFα)” value [2] was “suppressed” and the “CD45+ spleen cells” value (C57BL/6 (B6) male mice [3]; [9]) was 92.0%. The “CD4+ spleen cells” value (C57BL/6 (B6) male mice [3]; 5 mg/kg p.o.) was 15.5%, the “CD8+ spleen cells” value (C57BL/6 (B6) male mice [3]; 5 mg/kg p.o.) was 10.4% and the “Cd11b+/Gr-1+ spleen cells” value (C57BL/6 (B6) male mice [3]; 5 mg/kg p.o.) was 0.9%. For the same molecule, the “CD45+ spleen cells” value (C57BL/6 (B6) male mice [3]; [10]) was 96.7%, the “CD4+ spleen cells” value (C57BL/6 (B6) male mice [3]; 25 mg/kg p.o.) was 15.4% and the “CD8+ spleen cells” value (C57BL/6 (B6) male mice [3]; 25 mg/kg p.o.) was 9.8%. For the same molecule, the “Cd11b+/Gr-1+ spleen cells” value (C57BL/6 (B6) male mice [3]; 25 mg/kg p.o.) was 0.6%, the “CD45+ spleen cells” value (C57BL/6 (B6) male mice [3]; [11]) was 84.0% and the “CD4+ spleen cells” value (C57BL/6 (B6) male mice [3]; 50 mg/kg p.o.) was 16.6%. For the same molecule, the “CD8+ spleen cells” value (C57BL/6 (B6) male mice [3]; 50 mg/kg p.o.) was 10.2%, the “Cd11b+/Gr-1+ spleen cells” value (C57BL/6 (B6) male mice [3]; 50 mg/kg p.o.) was 1.3% and the “logSpH 7.4” value [4] was under −4.71. For the same molecule, the “logSpH 7.4” value ([4]; listed as torkinib) was under −4.60, the “Sol. (buffer 7.4)” value [4, 12] was under 6 µg/mL and the “Sol. (buffer 7.4)” value ([4]; sodium phosphate buffer pH 7.4, nephelometry, listed as torkinib) was “lower than 6 μg/mL”. For the same molecule, the “Sol. (H2O)” value ([4]; ultrapure water, nephelometry) was under 6 µg/mL, the “Sol. (H2O)” value ([4]; ultrapure water, nephelometry, listed as torkinib) was “lower than 6 μg/mL” and the logSH2O [4] was under −4.71. For the same molecule, the logSH2O ([4]; listed as torkinib) was under −4.60, the “effect on Thr389 S6K phosphorylation” value ([5]; BJ cells, 1 and 5 h) was “inhibitory effect” and the logD ([6]; shake-flask) was 2.75 ± 0.06. The logP ([6]; shake-flask) was 2.65 ± 0.02.
